Tests used:
Assay type in all cases: in vivo
[1] = test system: harmful plants AGSTE, DIPTE, LOLPE, MATCH, POAAN, SETVI, STEME and VERPE; test: Herbicidal early post-emergence action, summary of Tables A1-A8; details: application rate of 1900 g of active ingredient per hectare; summary in words
Experimental: (§1) Seeds of monocotyledonous and dicotyledonous weed plants were placed in 96-well microtiter plates in quartz sand and grown in a climatized chamber under controlled growth conditions. 5 to 7 days after sowing, the test plants were treated at the cotyledon stage. The compounds according to the invention, formulated in the form of emulsion concentrates (EC), were applied with a water application rate of the equivalent of 2200 liters per hectare. After the test plants had been left to stand in the climatized chamber for 9 to 12 days under optimum growth conditions, the effect of the preparations was scored visually in comparison to untreated controls. For example, 100% activity=the plants have died, 0% activity=like control plants.
Tables A1 to A8 below show the effects of selected compounds of the general formula (I) according to Table 1 on various harmful plants and an application rate corresponding to 1900 g/ha, which were obtained by the experimental procedure mentioned above.
As the results of Tables A1-A8 show, compounds no.

[2] = test system: Agrostis tenuis (AGSTE); test: Herbicidal early post-emergence action (Table A1); details: 1900 g/ha; scored visually 9 to 12 days after treatment; 100% = plants have died, 0% = like control plants
Experimental: as §1, with “plants. Tables A1 to A8 below show the effects of selected compounds of the general formula (I) according to Table 1 on various harmful plants and an application rate corresponding to 1900 g/ha, which were obtained by the experimental procedure mentioned above.” for “plants.”

[3] = test system: Matricaria inodora (MATIN); test: Herbicidal pre-emergence action, test C (Table C7); details: dosage 1280 g/ha; visual scoring after about 3 weeks; 100% = plants have died, 0% = like control plants
Method in brief: (§2)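 Greenhouse pre-emergence test: compound formulations (WP or EC) are applied at 1280 or 320 g/ha to the soil surface over sown weed seeds, with 0.5% additive in 600 L/ha water. After about 3 weeks, percent activity is assessed visually, 100% indicating dead plants.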

[4] = test system: harmful plants ABUTH, AMARE, ECHCG, LOLRI, MATIN, POAAN, SETVI, STEME, ALOMY, DIGSA, KCHSC and VERPE; test: Herbicidal post-emergence action, summary of Tables B1-B12; details: application rate of 1280 or 320 g of active ingredient per hectare; summary in words
Method in brief: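 Activity scored by eye roughly 3 weeks post-treatment against untreated plants, from 0% (no effect) to 100% (plants dead). Application rates were 1280 or 320 g/ha, as aqueous WP/EC spray plus 0.5% additive at 600 L/ha, onto one-leaf-stage weeds grown 2–3 weeks in sandy loam.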

[5] = test system: Lolium rigidum (LOLRI); test: Herbicidal pre-emergence action, test C (Table C2); details: dosage 1280 g/ha; visual scoring after about 3 weeks; 100% = plants have died, 0% = like control plants
From the text: (§3) Seeds of mono- and dicotyledonous weed plants were placed in plastic pots in sandy loam soil (doubly sown with one species each of mono- or dicotyledonous weed plants per pot) and covered with soil. The compounds of the invention, formulated in the form of wettable powders (WP) or as emulsion concentrates (EC), were then applied onto the surface of the covering soil as aqueous suspension or emulsion with addition of 0.5% additive at a water application rate of 600 liters per hectare (converted). After the treatment, the pots were placed in a greenhouse and kept under good growth conditions for the test plants. After about 3 weeks, the effect of the preparations was scored visually in comparison with untreated controls as percentages. For example, 100% activity=the plants have died, 0% activity=like control plants. Tables C1 to C12 below show the effects of selected compounds of the general formula (I) according to Table 1 on various harmful plants and an application rate corresponding to 1280 or 320 g/ha, which were obtained by the experimental procedure mentioned above.

[6] = test system: Veronica persica (VERPE); test: Herbicidal pre-emergence action, test C (Table C12); details: visual scoring vs untreated controls
Method in brief: as §2

[7] = test system: Abutilon theophrasti (ABUTH); test: Herbicidal pre-emergence action, test C (Table C5); details: dosage 1280 g/ha; visual scoring after about 3 weeks; 100% = plants have died, 0% = like control plants
Method in brief: as §2

[8] = test system: Stellaria media (STEME); test: Herbicidal pre-emergence action, test C (Table C8); details: dosage 1280 g/ha; visual scoring after about 3 weeks; 100% = plants have died, 0% = like control plants
Method in brief: as §2

[9] = test system: Poa annua (POAAN); test: Herbicidal pre-emergence action, test C (Table C3); details: visual scoring after about 3 weeks, 100% = plants have died, 0% = like control plants
Method in brief: as §2

[10] = test system: Bassia scoparia (KCHSC); test: Herbicidal post-emergence action (Table B11); details: dosage 1280 g/ha; visual rating about 3 weeks after treatment; 100% = plants have died, 0% = like control plants
Experimental: Seeds of mono- and dicotyledonous weed plants were placed in plastic pots in sandy loam soil (doubly sown with in each case one species of mono- or dicotyledonous weed plants per pot), covered with soil and cultivated in a greenhouse under controlled growth conditions. 2 to 3 weeks after sowing, the test plants were treated at the one-leaf stage. The compounds of the invention, formulated in the form of wettable powders (WP) or as emulsion concentrates (EC), were applied onto the green parts of the plants as aqueous suspension or emulsion with addition of 0.5% additive at a water application rate of 600 liters per hectare (converted). After the test plants had been kept in the greenhouse under optimum growth conditions for about 3 weeks, the activity of the preparations was rated visually in comparison to untreated controls. For example, 100% activity=the plants have died, 0% activity=like control plants. Tables B1 to B12 below show the effects of selected compounds of the general formula (I) according to Table 1 on various harmful plants and an application rate corresponding to 1280 or 320 g/ha, which were obtained by the experimental procedure mentioned above.

[11] = test system: Amaranthus retroflexus (AMARE); test: Herbicidal post-emergence action (Table B6); details: visual rating about 3 weeks after treatment, 100% = plants have died, 0% = like control plants
Method in brief: (§4)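 Post-emergence spray, one-leaf stage (2–3 wk after sowing), sandy loam, greenhouse. WP/EC in water + 0.5% additive, 600 L/ha, 1280 or 320 g/ha. Visual % activity vs untreated after ~3 wk (0% = like control, 100% = plants dead).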

[12] = test system: Digitaria sanguinalis (DIGSA); test: Herbicidal pre-emergence action, test C (Table C10); details: dosage 1280 g/ha; visual scoring after about 3 weeks; 100% = plants have died, 0% = like control plants
Method in brief: as §2

[13] = test system: harmful plants ABUTH, AMARE, ECHCG, LOLRI, MATIN, POAAN, SETVI, STEME, ALOMY, DIGSA, KCHSC and VERPE; test: Herbicidal pre-emergence action (test C), summary of Tables C1-C12; details: application rate of 1280 or 320 g of active ingredient per hectare; summary in words
Method in brief: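 Visual % damage versus untreated plants (0% = like control, 100% = died) was scored after about 3 weeks in the greenhouse. Before emergence, seeds sown in sandy loam got a soil-surface spray of compound as WP or EC plus 0.5% additive, using 600 L/ha water at rates of 1280 or 320 g/ha.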

[14] = test system: Stellaria media (STEME); test: Herbicidal post-emergence action (Table B8); details: dosage 1280 g/ha; visual rating about 3 weeks after treatment; 100% = plants have died, 0% = like control plants
Method in brief: as §4

[15] = test system: Setaria viridis (SETVI); test: Herbicidal pre-emergence action, test C (Table C4); details: dosage 1280 g/ha; visual scoring after about 3 weeks; 100% = plants have died, 0% = like control plants
Method in brief: as §2

[16] = test system: Veronica persica (VERPE); test: Herbicidal post-emergence action (Table B12); details: visual rating about 3 weeks after treatment, 100% = plants have died, 0% = like control plants
Method in brief: as §4

[17] = test system: Amaranthus retroflexus (AMARE); test: Herbicidal pre-emergence action, test C (Table C6); details: visual scoring after about 3 weeks, 100% = plants have died, 0% = like control plants
Method in brief: as §2

[18] = test system: Abutilon theophrasti (ABUTH); test: Herbicidal post-emergence action (Table B5); details: 1280 g/ha; rated visually after about 3 weeks; 100% = plants have died, 0% = like control plants
Method in brief: as §4

[19] = test system: Echinochloa crus-galli (ECHCG); test: Herbicidal pre-emergence action, test C (Table C1); details: dosage 1280 g/ha; visual scoring after about 3 weeks; 100% = plants have died, 0% = like control plants
From the text: as §3

Fc1cccc(Oc2ncc(C(F)(F)F)cc2Cl)c1-c1cc(C(F)F)on1 [Example 1-13]
herbicidal activity against the harmful plants of Tables A1-A8 in early post-emergence treatment [1]: very good herbicidal activity | Early post-emergence effect against Agrostis tenuis (AGSTE) [2]: 80%

Cn1nc(-c2c(F)cccc2Oc2ccc(Cl)cn2)cc1C(F)F [Example 1-64]
Pre-emergence action against Matricaria inodora (MATIN) [3]: 90% | herbicidal activity against the harmful plants of Tables B1-B12 in post-emergence treatment [4]: very good herbicidal activity | Pre-emergence action against Lolium rigidum (LOLRI) [5]: 90% | Pre-emergence action against Veronica persica (VERPE) ([6]; dosage 320 g/ha): 90% | Pre-emergence action against Veronica persica (VERPE) ([6]; dosage 1280 g/ha): 100% | Pre-emergence action against Abutilon theophrasti (ABUTH) [7]: 90% | Pre-emergence action against Stellaria media (STEME) [8]: 100% | Pre-emergence action against Poa annua (POAAN) ([9]; dosage 320 g/ha): 90% | Pre-emergence action against Poa annua (POAAN) ([9]; dosage 1280 g/ha): 100% | Post-emergence action against Bassia scoparia (KCHSC) [10]: 90% | Post-emergence action against Amaranthus retroflexus (AMARE) ([11]; dosage 320 g/ha): 100% | Post-emergence action against Amaranthus retroflexus (AMARE) ([11]; dosage 1280 g/ha): 100% | Pre-emergence action against Digitaria sanguinalis (DIGSA) [12]: 90% | herbicidal activity against the harmful plants of Tables C1-C12 in pre-emergence treatment [13]: very good herbicidal activity | Post-emergence action against Stellaria media (STEME) [14]: 100% | Pre-emergence action against Setaria viridis (SETVI) [15]: 100% | Post-emergence action against Veronica persica (VERPE) ([16]; dosage 320 g/ha): 90% | Post-emergence action against Veronica persica (VERPE) ([16]; dosage 1280 g/ha): 90% | Pre-emergence action against Amaranthus retroflexus (AMARE) ([17]; dosage 320 g/ha): 100% | Pre-emergence action against Amaranthus retroflexus (AMARE) ([17]; dosage 1280 g/ha): 100%

Cn1nc(C(F)F)cc1-c1c(F)cccc1Oc1ncc(Cl)cc1F [Example 1-82]
herbicidal activity against the harmful plants of Tables A1-A8 in early post-emergence treatment [1]: very good herbicidal activity | Early post-emergence effect against Agrostis tenuis (AGSTE) [2]: 80%

FC(F)(F)c1cccc(-c2ccccc2Oc2ccccn2)n1 [Example 1-50]
herbicidal activity against the harmful plants of Tables A1-A8 in early post-emergence treatment [1]: very good herbicidal activity | Early post-emergence effect against Agrostis tenuis (AGSTE) [2]: 80%

N#Cc1ccc(Oc2cccc(F)c2-c2cc(C(F)F)on2)nc1 [Example 1-11]
Pre-emergence action against Matricaria inodora (MATIN) [3]: 90% | herbicidal activity against the harmful plants of Tables B1-B12 in post-emergence treatment [4]: very good herbicidal activity | Post-emergence action against Abutilon theophrasti (ABUTH) [18]: 100% | Pre-emergence action against Abutilon theophrasti (ABUTH) [7]: 100% | Pre-emergence action against Echinochloa crus-galli (ECHCG) [19]: 90% | Pre-emergence action against Stellaria media (STEME) [8]: 100% | Pre-emergence action against Poa annua (POAAN) ([9]; dosage 1280 g/ha): 90% | Post-emergence action against Amaranthus retroflexus (AMARE) ([11]; dosage 320 g/ha): 100% | Post-emergence action against Amaranthus retroflexus (AMARE) ([11]; dosage 1280 g/ha): 100% | herbicidal activity against the harmful plants of Tables C1-C12 in pre-emergence treatment [13]: very good herbicidal activity | Pre-emergence action against Setaria viridis (SETVI) [15]: 90% | Pre-emergence action against Amaranthus retroflexus (AMARE) ([17]; dosage 1280 g/ha): 100%

Fc1cccc(Oc2ncc(Cl)cc2Cl)c1-c1cc(C(F)F)on1 [Example 1-12]
herbicidal activity against the harmful plants of Tables A1-A8 in early post-emergence treatment [1]: very good herbicidal activity | Early post-emergence effect against Agrostis tenuis (AGSTE) [2]: 80%

Fc1ccc(Oc2ccc(Cl)cn2)c(-c2cc(C(F)F)on2)c1 [Example 1-30]
herbicidal activity against the harmful plants of Tables A1-A8 in early post-emergence treatment [1]: very good herbicidal activity | Early post-emergence effect against Agrostis tenuis (AGSTE) [2]: 80%

Oc1ccc(-c2cc(C(F)F)no2)c(Oc2ccc(Cl)cn2)c1 [Example 1-42]
herbicidal activity against the harmful plants of Tables A1-A8 in early post-emergence treatment [1]: very good herbicidal activity | Early post-emergence effect against Agrostis tenuis (AGSTE) [2]: 80%
